Numbered stars: 1 amine (or outer) side, 2 acyl side, 3 side chain; on linkers, the order of the positions; unused ones are H or OH. Bridge positions count the residues as written; N and C are the ends. Square brackets hold non-standard residues; d marks the D form. Peptide text beside a SMILES is read from it. * marks the point of attachment. X19 = NC(=O)[C@H](CCCCNC(=O)CN1CCN(CC(=O)O)CCN(CC(=O)O)CCN(CC(=O)O)CC1)NC(=O)CCC(=O)NCCCOCCOCCNCCCN*; X22 = O=C1CN2CCN3CCN(CC(=O)N4CCN(Cc5cc(C[*:1])cc(C[*:2])c5)CC4)CCN(CC2)CC(=O)[O][Lu]([O]1)[O]C(=O)C3; X8 = O=C1CN2CCN3CCN(CC(=O)N4CCN(Cc5cc(C[*:1])cc(C[*:2])c5)CC4)CCN(CC2)CC(=O)[O][Ga]([O]1)[O]C(=O)C3; NH(CH2)5NHDOTA = O=C(O)CN1CCN(CC(=O)O)CCN(CC(=O)NCCCCCN*)CCN(CC(=O)O)CC1; X2 = O=C(O)CN1CCN(CC(=O)O)CCN(CC(=O)NCCCOCCOCCOCCCN*)CCN(CC(=O)O)CC1; mXylylene = c1cc(C[*:1])cc(C[*:2])c1; Pentanesulfonyl = CCCCCS(=O)(=O)*; Suc = O=C(CCC(=O)[*:2])[*:1]; 3Amb = NCc1cccc(C(=O)O)c1; 4Amb = NCc1ccc(C(=O)O)cc1; Nle = CCCC[C@H](N)C(=O)O; Hexanoyl = CCCCCC(=O)*
Assays:
Human recombinant FAP [1] = biological target: T1, Human recombinant FAP (Homo sapiens, UniProt Q12884); assay: Surface plasmon resonance (Biacore) assay; assay type: binding
T1 sequence (Q12884 1-760): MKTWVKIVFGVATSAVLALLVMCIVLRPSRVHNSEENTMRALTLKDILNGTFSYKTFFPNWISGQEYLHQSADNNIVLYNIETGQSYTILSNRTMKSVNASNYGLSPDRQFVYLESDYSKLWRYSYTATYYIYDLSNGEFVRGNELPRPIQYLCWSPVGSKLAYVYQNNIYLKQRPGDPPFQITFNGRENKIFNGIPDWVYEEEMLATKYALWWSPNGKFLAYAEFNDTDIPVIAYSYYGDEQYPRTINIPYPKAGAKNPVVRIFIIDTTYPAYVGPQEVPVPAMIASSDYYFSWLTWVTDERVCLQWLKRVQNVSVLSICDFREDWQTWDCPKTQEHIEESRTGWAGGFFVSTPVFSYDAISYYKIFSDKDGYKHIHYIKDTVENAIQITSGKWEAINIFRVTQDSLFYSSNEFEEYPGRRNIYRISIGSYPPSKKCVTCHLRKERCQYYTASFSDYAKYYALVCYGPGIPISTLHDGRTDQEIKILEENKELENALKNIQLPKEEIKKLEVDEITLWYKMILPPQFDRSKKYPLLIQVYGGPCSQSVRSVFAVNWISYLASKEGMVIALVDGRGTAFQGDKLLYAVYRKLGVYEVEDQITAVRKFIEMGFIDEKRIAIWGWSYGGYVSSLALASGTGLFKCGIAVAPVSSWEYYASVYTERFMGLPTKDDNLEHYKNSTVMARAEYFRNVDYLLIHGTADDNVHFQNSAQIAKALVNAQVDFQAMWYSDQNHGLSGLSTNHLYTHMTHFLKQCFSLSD

[2] = biological target: T2, FAP-expressing human WI-38 fibroblasts (Homo sapiens, UniProt Q12884); assay: Competitive FACS binding assay; conditions: pIC50 Category (FACS), competition with 3 nM Cy5-labeled compound, WI-38 fibroblasts, 4° C., 1 hour
T2 construct: FAP-expressing human WI-38 fibroblasts (ECACC) were cultured in EMEM; host or cells: WI-38 human fibroblasts
T2 sequence (Q12884 1-760): T1 sequence (Q12884 1-760)
Experimental: Cells were analyzed in an Attune NxT flow cytometer. […]

Human recombinant FAP [3] = biological target: T1, Human recombinant FAP; assay: FRET-based FAP protease activity assay; assay type: biochemical; parameters: purchased R&D systems 3715-SE; conditions: pIC50 Category (Activity), recombinant human FAP, FRET substrate, 37° C.

CCCCCC(=O)N[C@H]1CSCc2cccc(c2)CSC[C@@H](C(=O)N[C@@H](CC(=O)O)C(=O)NCc2ccc(C(=O)N[C@@H](CCCNC(=N)N)C(N)=O)cc2)NC(=O)[C@H](Cc2ccccc2)NC(=O)[C@H](CCC(=O)O)NC(=O)[C@H]([C@@H](C)O)NC(=O)[C@@H]2CCCN2C(=O)[C@@H]2CCCN2C1=O [3BP-3301, Hex-[Cys(3MeBn)-Pro-Pro-Thr-Glu-Phe-Cys]-Asp-Pamb-Arg-NH2] (Hexanoyl-CPPTEFCD[4Amb]R-NH2; linker 1-7 via mXylylene)
< 0.01 µM: Kd (Human recombinant FAP [1]) | IC50 [2] | IC50 (Human recombinant FAP [3])

CCCCCC(=O)N[C@H]1CSCc2cccc(c2)CSC[C@@H](C(=O)N[C@@H](CC(=O)O)C(=O)NCc2cccc(C(=O)N[C@@H](CCCNC(=N)N)C(N)=O)c2)NC(=O)[C@H](Cc2ccccc2)NC(=O)[C@H](CCC(=O)O)NC(=O)[C@H]([C@@H](C)O)NC(=O)[C@@H]2CCCN2C(=O)[C@@H]2CCCN2C1=O [3BP-3324, Hex-[Cys(3MeBn)-Pro-Pro-Thr-Glu-Phe-Cys]-Asp-Mamb-Arg-NH2] (Hexanoyl-CPPTEFCD[3Amb]R-NH2; linker 1-7 via mXylylene)
< 0.01 µM: Kd (Human recombinant FAP [1]) | IC50 [2] | IC50 (Human recombinant FAP [3])

CCCCCC(=O)N[C@H]1CSCc2cccc(c2)CSC[C@@H](C(=O)N[C@@H](CC(=O)O)C(=O)NCCCNCCOCCOCCCNC(=O)CCC(=O)N[C@@H](CCCCNC(=O)CN2CCN(CC(=O)O)CCN(CC(=O)O)CCN(CC(=O)O)CC2)C(N)=O)NC(=O)[C@H](Cc2ccccc2)NC(=O)[C@H](CCC(N)=O)NC(=O)[C@H]([C@@H](C)O)NC(=O)[C@@H]2CCCN2C(=O)[C@@H]2CCCN2C1=O [3BP-3395, Hex-[Cys(3MeBn)-Pro-Pro-Thr-Gln-Phe-Cys]-Asp-Ttds-Lys(DOTA)-NH2] (Hexanoyl-CPPTQFCD-X19; linker 1-7 via mXylylene)
< 0.01 µM: Kd (Human recombinant FAP [1]) | IC50 [2] | IC50 (Human recombinant FAP [3])

CCCCCC(=O)N[C@H]1CSCc2cccc(c2)CSC[C@@H](C(=O)N[C@@H](CC(=O)O)C(=O)NCCCNCCOCCOCCCNC(=O)CCC(=O)N[C@@H](CCCCNC(=O)CN2CCN(CC(=O)O)CCN(CC(=O)O)CCN(CC(=O)O)CC2)C(N)=O)NC(=O)[C@H](Cc2ccccc2)NC(=O)[C@H](CCC(=O)O)NC(=O)[C@H]([C@@H](C)O)NC(=O)[C@@H]2CCCN2C(=O)[C@@H]2CCCN2C1=O [3BP-3396, Hex-[Cys(3MeBn)-Pro-Pro-Thr-Glu-Phe-Cys]-Asp-Ttds-Lys(DOTA)-NH2] (Hexanoyl-CPPTEFCD-X19; linker 1-7 via mXylylene)
< 0.01 µM: Kd (Human recombinant FAP [1]) | IC50 [2] | IC50 (Human recombinant FAP [3])

CCCC[C@H](NC(=O)CCC(=O)NCCCOCCOCCOCCCNC(=O)CN1CCN(CC(=O)O)CCN(CC(=O)O)CCN(CC(=O)O)CC1)C(=O)N[C@H]1CSCc2cccc(c2)CSC[C@@H](C(=O)N[C@@H](CC(=O)O)C(N)=O)NC(=O)[C@H](Cc2ccccc2)NC(=O)[C@H](CCC(N)=O)NC(=O)[C@H]([C@@H](C)O)NC(=O)[C@@H]2CCCN2C(=O)[C@@H]2CCCN2C1=O [3BP-3401, DOTA-Ttds-Nle-[Cys(3MeBn)-Pro-Pro-Thr-Gln-Phe-Cys]-Asp-NH2] ({X2-Suc}-[Nle]CPPTQFCD-NH2; linker 2-8 via mXylylene)
< 0.01 µM: Kd (Human recombinant FAP [1]) | IC50 [2] | IC50 (Human recombinant FAP [3])

CCCCCC(=O)N[C@H]1CSCc2cccc(c2)CSC[C@@H](C(=O)N[C@@H](CC(=O)O)C(=O)NCCCCCNC(=O)CN2CCN(CC(=O)O)CCN(CC(=O)O)CCN(CC(=O)O)CC2)NC(=O)[C@H](Cc2ccccc2)NC(=O)[C@H](CCC(N)=O)NC(=O)[C@H]([C@@H](C)O)NC(=O)[C@@H]2CCCN2C(=O)[C@@H]2CCCN2C1=O [3BP-3403, Hex-[Cys(3MeBn)-Pro-Pro-Thr-Gln-Phe-Cys]-Asp-Ape(DOTA)] (Hexanoyl-CPPTQFCD-{NH(CH2)5NHDOTA}; linker 1-7 via mXylylene)
< 0.01 µM: Kd (Human recombinant FAP [1]) | IC50 [2] | IC50 (Human recombinant FAP [3])

CCCCCC(=O)N[C@H]1CSCc2cccc(c2)CSC[C@@H](C(=O)N[C@@H](CCCCNC(=O)CCC(=O)NCCCOCCOCCOCCCNC(=O)CN2CCN(CC(=O)O)CCN(CC(=O)O)CCN(CC(=O)O)CC2)CC(=O)O)NC(=O)[C@H](Cc2ccccc2)NC(=O)[C@H](CCC(N)=O)NC(=O)[C@H]([C@@H](C)O)NC(=O)[C@@H]2CCCN2C(=O)[C@@H]2CCCN2C1=O [3BP-3489, Hex-[Cys(3MeBn)-Pro-Pro-Thr-Gln-Phe-Cys]-Bhk(DOTA-Ttds)-OH]
< 0.01 µM: Kd (Human recombinant FAP [1]) | IC50 [2] | IC50 (Human recombinant FAP [3])

CCCCCS(=O)(=O)N[C@H]1CSCc2cccc(c2)CSC[C@@H](C(=O)N[C@@H](CC(=O)O)C(N)=O)NC(=O)[C@H](Cc2ccccc2)NC(=O)[C@H](CCC(N)=O)NC(=O)[C@H]([C@@H](C)O)NC(=O)[C@@H]2CCCN2C(=O)[C@@H]2CCCN2C1=O [3BP-3514, Pentyl-SO2-[Cys(3MeBn)-Pro-Pro-Thr-Gln-Phe-Cys]-Asp-NH2] (Pentanesulfonyl-CPPTQFCD-NH2; linker 1-7 via mXylylene)
< 0.01 µM: Kd (Human recombinant FAP [1]) | IC50 [2] | IC50 (Human recombinant FAP [3])

CCCCCC(=O)N[C@H]1CSCc2cc(cc(CN3CCN(C(=O)CN4CCN5CCN6CCN(CC4)CC(=O)[O][Lu]([O]C(=O)C6)[O]C(=O)C5)CC3)c2)CSC[C@@H](C(=O)N[C@@H](CC(=O)O)C(N)=O)NC(=O)[C@H](Cc2ccccc2)NC(=O)[C@H](CCC(N)=O)NC(=O)[C@H]([C@@H](C)O)NC(=O)[C@@H]2CCCN2C(=O)[C@@H]2CCCN2C1=O [3BP-3591, Lutetium-Complex of Hex-[Cys(tMeBn(DOTA-PP))-Pro-Pro-Thr-Gln-Phe-Cys]-Asp-NH2] (Hexanoyl-CPPTQFCD-NH2; linker 1-7 via X22)
< 0.01 µM: Kd (Human recombinant FAP [1]) | IC50 [2] | IC50 (Human recombinant FAP [3])

CCCCCC(=O)N[C@H]1CSCc2cc(cc(CN3CCN(C(=O)CN4CCN5CCN6CCN(CC4)CC(=O)[O][Ga]([O]C(=O)C6)[O]C(=O)C5)CC3)c2)CSC[C@@H](C(=O)N[C@@H](CC(=O)O)C(N)=O)NC(=O)[C@H](Cc2ccccc2)NC(=O)[C@H](CCC(N)=O)NC(=O)[C@H]([C@@H](C)O)NC(=O)[C@@H]2CCCN2C(=O)[C@@H]2CCCN2C1=O [3BP-3592, Gallium-Complex of Hex-[Cys(tMeBn(DOTA-PP))-Pro-Pro-Thr-Gln-Phe-Cys]-Asp-NH2] (Hexanoyl-CPPTQFCD-NH2; linker 1-7 via X8)
< 0.01 µM: Kd (Human recombinant FAP [1]) | IC50 [2] | IC50 (Human recombinant FAP [3])

CCCCCC(=O)N[C@H]1CSCc2cc(CSCCNC(=O)CN3CCN(CC(=O)O)CCN(CC(=O)O)CCN(CC(=O)O)CC3)cc(c2)CSC[C@@H](C(=O)O)NC(=O)[C@H](Cc2cccc3ccccc23)NC(=O)[C@H](CCC(N)=O)NC(=O)[C@H]([C@@H](C)O)NC(=O)[C@@H]2CCCN2C(=O)[C@@H]2CCCN2C1 [3BP-3650, Hex-[Cys(tMeBn(DOTA-AET))-Pro-Pro-Thr-Gln-1Ni-Cys]-OH]
< 0.01 µM: Kd (Human recombinant FAP [1]) | IC50 [2] | IC50 (Human recombinant FAP [3])
